Results reported in paper PMC11191602, “A novel and selective fluorescent ligand for the study of adenosine A2B receptors” (Pharmacology Research & Perspectives, 2024).

Key:
[1] = target: T1, human A2BR tagged with N‐terminal nanoluciferase (NLuc‐A2BR) (Homo sapiens, UniProt P29275); experiment: NanoBRET saturation binding of PSB603‐BY630 in live HEK293G cells stably expressing NLuc‐A2BR; conditions: non‐specific binding defined with 1 μM MRS‐1706, 1 h 37°C, mean of five experiments
T1 construct: expressed in transfected cells
T1 sequence (P29275 1-332): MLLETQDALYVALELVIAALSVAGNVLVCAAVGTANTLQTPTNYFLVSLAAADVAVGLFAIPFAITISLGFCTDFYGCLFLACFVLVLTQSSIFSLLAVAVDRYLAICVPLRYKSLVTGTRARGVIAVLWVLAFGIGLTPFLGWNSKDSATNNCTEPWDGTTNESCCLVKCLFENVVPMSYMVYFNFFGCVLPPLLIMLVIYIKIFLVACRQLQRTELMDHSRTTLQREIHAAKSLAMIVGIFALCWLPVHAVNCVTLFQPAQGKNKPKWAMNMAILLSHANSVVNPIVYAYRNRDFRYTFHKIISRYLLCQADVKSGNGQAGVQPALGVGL
Method: Saturation and competition binding assays were performed as previously described.[36] Briefly, cells were seeded in 96‐well white clear‐bottomed Greiner plates pre‐treated with 10 μg/mL poly‐D‐lysine (Sigma‐Aldrich, Missouri USA) at a density of 30 000–35 000 cells per well in DMEM supplemented with 10% FBS. The following day medium was removed and cells were incubated with PSB603‐BY630 in the presence or absence of 1 μM MRS1706 (saturation binding assays) or competing ligand in the presence of 50 nM PSB603‐BY630 (competition binding assays) in HEPES buffered saline solution (HBSS; 145 mM NaCl, 5 mM KCl, 1.3 mM CaCl2, 1 mM MgSO4, 10 mM HEPES, 2 mM sodium pyruvate, 1.5 mM NaHCO3, 10 mM D‐glucose, pH 7.45) with 0.1% bovine serum albumin for 1 h at 37°C. […] The resulting bioluminescence resonance energy transfer (BRET) was measured using a PHERAstar FS plate reader (BMG Labtech) at 37°C. For each well, filtered light emissions at 460 nm (80 nm bandpass) and >610 nm (longpass) for the BODIPY630/650 ligand were simultaneously measured. BRET ratios were calculated by dividing the 610 nm emission by the 460 nm emission. […] For kinetic experiments, cells were preincubated for 10 min with 1:400 dilution of furimazine prior to addition of 200 nM PSB603‐BY630 and BRET ratios determined every 0.5 min. […]
Data were analyzed using Prism 7.4 software (GraphPad, San Diego, USA). […]

human NLuc‐A1R = target: T2, human NLuc‐A1R (Homo sapiens, UniProt P30542); experiment: NanoBRET saturation binding in stable HEK293T cell line expressing NLuc‐A1R; conditions: non‐specific defined with 1 μM SLV320; PSB603‐BY630 at concentrations up to 500 nM
T2 construct: expressed in transfected cells
T2 sequence (P30542 1-326): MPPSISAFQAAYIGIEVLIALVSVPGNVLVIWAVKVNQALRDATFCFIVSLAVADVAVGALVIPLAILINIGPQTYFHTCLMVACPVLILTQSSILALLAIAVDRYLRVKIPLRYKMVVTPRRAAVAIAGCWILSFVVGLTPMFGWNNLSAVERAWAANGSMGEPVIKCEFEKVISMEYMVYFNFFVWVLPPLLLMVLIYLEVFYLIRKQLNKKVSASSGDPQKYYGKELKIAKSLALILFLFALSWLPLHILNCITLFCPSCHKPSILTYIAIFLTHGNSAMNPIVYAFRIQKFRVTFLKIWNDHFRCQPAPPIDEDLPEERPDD
Method: (§1) Saturation and competition binding assays were performed as previously described.[36] Briefly, cells were seeded in 96‐well white clear‐bottomed Greiner plates pre‐treated with 10 μg/mL poly‐D‐lysine (Sigma‐Aldrich, Missouri USA) at a density of 30 000–35 000 cells per well in DMEM supplemented with 10% FBS. […] The NanoLuc substrate, furimazine (Promega Corporation, Wisconsin, USA), was then added to each well (1:400 dilution) and the plate was incubated for 10 min in the dark at 37°C. The resulting bioluminescence resonance energy transfer (BRET) was measured using a PHERAstar FS plate reader (BMG Labtech) at 37°C. For each well, filtered light emissions at 460 nm (80 nm bandpass) and >610 nm (longpass) for the BODIPY630/650 ligand were simultaneously measured. BRET ratios were calculated by dividing the 610 nm emission by the 460 nm emission. All conditions were performed in 2–6 replicates within each plate. For kinetic experiments, cells were preincubated for 10 min with 1:400 dilution of furimazine prior to addition of 200 nM PSB603‐BY630 and BRET ratios determined every 0.5 min. At 60 min, 10 μM MRS‐1706 was added and the ligand‐binding kinetics followed for a further 60 min.

human NLuc‐A3R = target: T3, human NLuc‐A3R (Homo sapiens, UniProt P0DMS8); experiment: NanoBRET saturation binding in stable HEK293G cell line expressing NLuc‐A3R; conditions: non‐specific defined with 1 μM MRS‐1220; PSB603‐BY630 at concentrations up to 500 nM
T3 construct: expressed in transfected cells
T3 sequence (P0DMS8 1-318): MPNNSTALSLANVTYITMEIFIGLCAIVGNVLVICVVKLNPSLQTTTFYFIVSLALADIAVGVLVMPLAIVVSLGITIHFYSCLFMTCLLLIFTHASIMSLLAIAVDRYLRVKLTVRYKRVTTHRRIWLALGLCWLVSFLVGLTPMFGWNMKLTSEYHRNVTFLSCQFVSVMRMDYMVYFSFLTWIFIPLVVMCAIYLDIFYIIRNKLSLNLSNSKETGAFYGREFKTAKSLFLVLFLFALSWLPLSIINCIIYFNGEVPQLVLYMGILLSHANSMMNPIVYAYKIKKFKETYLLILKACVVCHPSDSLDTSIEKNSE
Method: as §1

CCCn1c(=O)[nH]c2[nH]c(-c3ccc(S(=O)(=O)N4CCN(c5ccc(OCCNC(=O)CCCCCNC(=O)COc6ccc(/C=C/C7=[N+]8C(=Cc9ccc(-c%10cccs%10)n9[B-]8(F)F)C=C7)cc6)cc5)CC4)cc3)nc2c1=O [PSB603‐BY630]
Kd [1]: 18.3 nM
specific binding to NLuc‐A1R (human NLuc‐A1R): negligible
specific binding to NLuc‐A3R (human NLuc‐A3R): negligible
